Source: publication PMC3415135 (Evidence-based Complementary and Alternative Medicine : eCAM, 2012)
Values after ≈ are worked out from the molar mass of the structure shown.

Tests used:
Type in all cases: biochemical
[1] = target: Apis (Apis mellifera, UniProt P00630)
[2] = target: T1, COX-2 (cyclooxygenase-2); assay: enzyme inhibition, Cayman kit; details: per manufacturer's instructions
T1 construct: gene PTGS2; commercial, Cayman Chemical
Excerpt: enzyme inhibition, Cayman kit on COX-2 (cyclooxygenase-2)

[3] = target: T2, HGVPLA2 (human group V PLA2) (Homo sapiens, UniProt P39877); assay: enzyme inhibition, Cayman kit
T2 construct: gene PLA2G5; commercial assay, Cayman Chemical
T2 sequence (P39877 21-138): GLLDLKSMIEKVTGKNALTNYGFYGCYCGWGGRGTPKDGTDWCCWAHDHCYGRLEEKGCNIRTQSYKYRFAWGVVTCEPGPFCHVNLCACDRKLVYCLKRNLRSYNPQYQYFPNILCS
Excerpt: enzyme inhibition, Cayman kit on HGVPLA2 (human group V PLA2)

[4] = target: T3, BPPLA2 (bovine pancreas PLA2) (Bos taurus, UniProt P00593); assay: enzyme inhibition, Cayman kit
T3 construct: gene PLA2G1B; native pancreatic enzyme, purchased from Sigma-Aldrich
T3 sequence (P00593 23-145): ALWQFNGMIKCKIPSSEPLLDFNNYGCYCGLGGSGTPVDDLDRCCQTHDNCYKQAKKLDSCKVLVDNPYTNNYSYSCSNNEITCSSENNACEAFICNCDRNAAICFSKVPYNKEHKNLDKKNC
Excerpt: enzyme inhibition, Cayman kit on BPPLA2 (bovine pancreas PLA2)

[5] = target: T4, LOX 15HRC (Lipoxygenase 15hrc); assay: enzyme inhibition, Cayman kit; details: per manufacturer's instructions
T4 construct: gene ALOX15; commercial, Cayman Chemical
Excerpt: enzyme inhibition, Cayman kit on LOX 15HRC (Lipoxygenase 15hrc)

Apis, sequence (P00630 34-167 limits assumed): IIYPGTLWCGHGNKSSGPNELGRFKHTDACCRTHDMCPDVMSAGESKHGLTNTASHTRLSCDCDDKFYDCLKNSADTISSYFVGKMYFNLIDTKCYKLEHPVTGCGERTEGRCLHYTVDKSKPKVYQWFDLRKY

Structure (SMILES) | hydrolysis, A425 [1] | IC50 [2] | IC50 [3] | IC50 [4] | IC50 [5]
CCCCCCCC(=O)Oc1cc(C(=O)O)ccc1[N+](=O)[O-] [4-nitro-3-octanoyloxy-benzoic acid] | as a direct result of the cleavage of the synthetic substrate |  |  |  | 
CC1(C)Oc2cc3occ(-c4ccc5c(c4)OCO5)c(=O)c3c(O)c2C[C@H]1O [harpalycin 2] |  | 32.73 µg/mL (≈ 85.6 µM) | 71.7 µM | 31.1 µM | 55.96 µg/mL (≈ 146 µM)
